Measured values taken from ChEMBL document CHEMBL1149570, “Thiotetrazole alkynylacetanilides as potent and bioavailable non-nucleoside inhibitors of the HIV-1 wild type and K103N/Y181C double mutant reverse transcriptases” (Bioorg Med Chem Lett, 2007).

Legend:
Type in all cases: ADME, organism-based
[1] = Oral bioavailability in rat at 5 mg/kg; details: in vivo
[2] = AUC in rat at 5 mg/kg, po; parameters: dose 5 mg/kg, route oral; details: plasma
[3] = Cmax in rat at 5 mg/kg, po; parameters: dose 5 mg/kg, route oral; details: in vivo

| bioavailability [1] | AUC [2] | Cmax [3] | Structure (SMILES) |
| --- | --- | --- | --- |
| 66% | 9.5 µM·h | 5000 nM | CC(C)(C#Cc1ccc(NC(=O)CSc2nnnn2-c2ccc(C3CC3)cc2Cl)c(Cl)c1)C(=O)O |
| 21% | 1 µM·h | 280 nM | CC(C)(C#Cc1ccc(NC(=O)CSc2nnnn2-c2ccc(C3CC3)cc2Cl)c(Cl)c1)NC(=O)CN |
| 29% | 0.84 µM·h | 260 nM | CC(C)(C#Cc1ccc(NC(=O)CSc2nnnn2-c2ccc(C3CC3)cc2Cl)c(Cl)c1)CNCC(=O)O |
